Data set [1] deals with T1, full-length NDM-1 (Klebsiella pneumoniae, UniProt C7C422). Put plainly: biochemical.
Procedure: The compounds to be tested were dissolved in DMSO prior to incubation with the enzyme, with the final concentration of DMSO in the assay not exceeding 0.5% (vol/vol). At concentrations below 0.5%, no effect of DMSO on the enzyme activity was observed. IC50s were deduced from a plot of percent loss of activity versus inhibitor concentration. […] The precision of these determinations was within the range of precision 10%.
Data set [2] concerns E. coli BL21 (DE3)/pET30a-NDM-1. Put plainly: microbe, parasite or virus in culture. It counts as cell-based. The settings on record: for sensitization of the strain to clinically achievable concentrations of meropenem: inhibitor at the level of 100 µM; for sensitization of the strain to clinically achievable concentrations of meropenem / synergistic antibacterial activity with meropenem: result in words. The protocol:
E. coli BL21 (DE3) was used as a control in the experiment. E. coli BL21 (DE3)/pET30a-NDM-1 was grown overnight in MH broth media (Tianhe Microbial Agents, Hangzhou, China) containing kanamycin (30 µg/ml) at 37°C. Determination of antibacterial synergy was completed using a twofold serial dilution method, as recommended by CLSI guidelines. […] The 96-well microplates were incubated at 37°C with continuous shaking for 18 h and a reading at 630 nm was taken to determine minimum inhibitory concentrations (MICs), [22]. […] Each concentration reading was repeated three times. All of the above experiments were repeated at least twice.

Data set [3] addresses T1, full-length NDM-1. It counts as biochemical, E. coli. Also on record: The full-length NDM-1 enzyme was isolated to 95% purity as indicated by the SDS-PAGE; His6 tag (pET30a leader) (N, cleaved yes); made in house; host or cells: E. coli BL21 (DE3) carrying pET30a-NDM-1. From the text:
(§1) Benzylpenicillin (Sangon, Shanghai, China), ampicillin (Sangon, Shanghai, China), cefuroxime (Sigma, St. Louis, USA), ceftazidime (TCI, Shanghai, China), ceftizoxime (TCI, Shanghai, China), cefpiramide (Shandong Lukang, Shandong, China), imipenem (Shenzhen Haibin, Guangdong, China), meropenem (Zhejiang Hisun, Zhejiang, China) and aztreonam (Hunan Kelun, Hunan, China) were used as substrates for determining the steady-state kinetic constants.
(§2) Hydrolysis of the antibiotics by NDM-1 was followed by monitoring the variation in the absorbance of the β-lactam solution in 20 mM HEPES buffer, pH 6.8, 0.25 M NaCl, 2 mM 1,4-Dithio-DL-threitol (DTT) (Sangon, Shanghai, China), 100 µM Zn(NO3)2. All the measurements were made on a UV−1800 spectrophotometer (Mapada, Shanghai, China). The reactions were performed in a total volume of 100 µl at 30°C. BSA (20 µg/ml) was added to diluted solutions of β-lactamase in order to prevent enzyme denaturation. […] The extinction coefficients and wavelengths used in the assays were those described by Laraki et al and Thomas et al. The steady-state kinetic parameters (K m and k cat) were determined more than three times by fitting the concentration dependence of initial rate measurements to the Michaelis−Menten equation using GraphPad Prism (GraphPad Software, La Jolla, America).

For data set [4], the system named is CO/N=C(\C(=O)N[C@@H]1C(=O)N2C(C(=O)O)=CCS[C@H]12)c1csc(N)n1. The data set is described as follows: purified protein, by the assay type. As to conditions: other: substrate hydrolysis, 20 mM HEPES pH 6.8, 30°C.
Data set [5] deals with Cc1cc(O)c(C(=O)N[C@@H](C(=O)N[C@@H]2C(=O)N3C(C(=O)O)=C(CSc4nnnn4C)CS[C@H]23)c2ccc(O)cc2)cn1. The data set is described as follows: purified protein, by the assay type. The settings on record: other: substrate hydrolysis, 20 mM HEPES pH 6.8, 30°C.
Data set [6] deals with CC1(C)S[C@@H]2[C@H](NC(=O)[C@H](N)c3ccccc3)C(=O)N2[C@H]1C(=O)O. Put plainly: purified protein, by the assay type. The class given is biochemical, E. coli. The settings on record: other: substrate hydrolysis, 20 mM HEPES pH 6.8, 30°C.
Source text: as §1, §2

Data set [7] concerns C[C@@H](O)[C@H]1C(=O)N2C(C(=O)O)=C(SCCN=CN)C[C@H]12. Put plainly: purified protein, by the assay type. The class given is biochemical, E. coli. As to conditions: other: substrate hydrolysis, 20 mM HEPES pH 6.8, 30°C.
Source text: as §1, §2

The test system of data set [8] is CC1(C)S[C@@H]2[C@H](NC(=O)Cc3ccccc3)C(=O)N2[C@H]1C(=O)O. The data set is described as follows: purified protein, by the assay type. It counts as biochemical, E. coli. As to conditions: other: substrate hydrolysis, 20 mM HEPES pH 6.8, 30°C.
Source text: as §1, §2

In data set [9] the test system is CO/N=C(\C(=O)N[C@@H]1C(=O)N2C(C(=O)O)=C(COC(N)=O)CS[C@H]12)c1ccco1. Put plainly: purified protein, by the assay type. It counts as biochemical, E. coli. The settings on record: other: substrate hydrolysis, 20 mM HEPES pH 6.8, 30°C.
Source text: as §1, §2

Data set [10] concerns CC(C)(O/N=C(\C(=O)N[C@@H]1C(=O)N2C(C(=O)[O-])=C(C[n+]3ccccc3)CS[C@H]12)c1csc(N)n1)C(=O)O. The data set is described as follows: purified protein, by the assay type. It counts as biochemical, E. coli. As to conditions: other: substrate hydrolysis, 20 mM HEPES pH 6.8, 30°C.
Source text: as §1, §2

Another data set concerns E. coli BL21 (DE3). The data set is described as follows: MIC of meropenem against control strain. It counts as cell-based. As to conditions: Escherichia coli. The protocol:
E. coli BL21 (DE3)/pET30a-NDM-1, which is similar to clinical NDM-1-carrying isolates and safer than clinical isolates, was used to evaluate the potential ability of NDM-1 inhibitors to reverse NDM-1-mediated carbapenem resistance in bacteria. E. coli BL21 (DE3) was used as a control in the experiment. E. coli BL21 (DE3)/pET30a-NDM-1 was grown overnight in MH broth media (Tianhe Microbial Agents, Hangzhou, China) containing kanamycin (30 µg/ml) at 37°C. Determination of antibacterial synergy was completed using a twofold serial dilution method, as recommended by CLSI guidelines. […] The 96-well microplates were incubated at 37°C with continuous shaking for 18 h and a reading at 630 nm was taken to determine minimum inhibitory concentrations (MICs), [22]. […] Each concentration reading was repeated three times. All of the above experiments were repeated at least twice.

A short description of data set [11]: Solubility behaviour in testing buffer of the IC50 assay. It counts as physicochemical. As to conditions: result in words.
Setting [12] is: substrate hydrolysis, 20 mM HEPES pH 6.8, 30°C.

“And” between values parts separate entries of the source, which are not always exact repeats. Equal values may be shown once. Read-outs that look alike come from different tables or passages of the source.

T1 sequence (C7C422 29-270 limits assumed): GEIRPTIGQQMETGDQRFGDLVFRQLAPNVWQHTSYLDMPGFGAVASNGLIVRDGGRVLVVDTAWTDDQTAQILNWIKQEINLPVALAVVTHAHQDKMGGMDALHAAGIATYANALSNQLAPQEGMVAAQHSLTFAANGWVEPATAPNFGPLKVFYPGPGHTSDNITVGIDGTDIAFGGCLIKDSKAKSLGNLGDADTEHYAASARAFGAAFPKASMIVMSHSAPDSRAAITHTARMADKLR

`O=C(O)C(C(=O)O)c1ccsc1` [Compound 5, 3-thiophenemalonic acid]: on full-length NDM-1 [1], the IC50 was 610 µM. For the same compound, the “MICs of meropenem in combination with NDM-1 inhibitors” value (“MICs … with NDM-1 inhibitors” below) in data set [2] (inhibitor at 6.25 µM) stood at 256 µg/mL; in data set [2] (inhibitor at 12.5 µM), 128 µg/mL; in [2] (inhibitor at 25.0 µM) it was 64 µg/mL; in data set [2] (inhibitor at 50.0 µM), 32 µg/mL; in data set [2] (inhibitor at 100.0 µM), 16 µg/mL. For the same compound, in data set [2], the “sensitization of the strain to clinically achievable concentrations of meropenem” value is given as “able to sensitize the strain to clinically achievable concentrations of meropenem”. Also, in data set [2], the “synergistic antibacterial activity with meropenem” value (from here on “synergistic antibacterial activity”) is on record as “showed synergistic antibacterial activity”.
In the case of `CC1(C)S[C@@H]2[C@H](NC(=O)Cc3ccccc3)C(=O)N2[C@H]1C(=O)O` [Benzylpenicillin], the K m on full-length NDM-1 [3] (setting [12]) came out at 13 ± 1 µM; on full-length NDM-1 [3] (substrate hydrolysis, 20 mM HEPES pH 6.8, 30°C, listed as benzylpenicillin), 13 µM.
For “full-length NDM-1 (Klebsiella pneumoniae)”, the kcat in data set [4] is 3 s⁻¹; in data set [5], 1.4 s⁻¹; in [6], 10 s⁻¹ and 11.4 s⁻¹; in data set [7], 10 s⁻¹ and 10.8 s⁻¹; in [8] it was 10 s⁻¹ and 16.7 s⁻¹; in [9] it was 2.6 s⁻¹. Further, the kcat in data set [10] turned out to be 3.6 s⁻¹. Also, the specificity constant (kcat/Km) in [4] is 100000 M⁻¹ s⁻¹; in data set [5], 40000 M⁻¹ s⁻¹; in data set [6] it was 630000 M⁻¹ s⁻¹; in [7], 90000 M⁻¹ s⁻¹; in data set [8], 1.28e+06 M⁻¹ s⁻¹; in data set [9] it was 220000 M⁻¹ s⁻¹. In addition, the specificity constant (kcat/Km) in data set [10] came to 30000 M⁻¹ s⁻¹.
`C[C@@H](O)[C@H]1C(=O)N2C(C(=O)O)=C(S[C@@H]3CN[C@H](C(=O)N(C)C)C3)[C@H](C)[C@H]12` [Meropenem, meropenem]: in the data set on E. coli BL21 (DE3), the MIC was 2 µg/mL. On full-length NDM-1 [3] (setting [12]), this compound displayed a K m of 68 ± 6 µM, a V max of 2.0 ± 0.15 µM/s and a k cat of 4.0 s⁻¹. On full-length NDM-1 [3] (substrate hydrolysis, 20 mM HEPES pH 6.8, 30°C, listed as meropenem), this compound returned a K m of 68 µM. In data set [2] (Escherichia coli), the MIC was 256 µg/mL.
With `C[C@@H](O)[C@H]1C(=O)N2C(C(=O)O)=C(SCCN=CN)C[C@H]12` [Imipenem, imipenem], the K m on full-length NDM-1 [3] (setting [12]) stood at 127 ± 11 µM; at full-length NDM-1 [3] (substrate hydrolysis, 20 mM HEPES pH 6.8, 30°C, listed as imipenem), 127 µM.
For `COC(=O)c1sc(C(=O)OC)c(OCc2nnn[nH]2)c1OCc1nnn[nH]1` [Compound 3], in data set [11], the solubility entry is “better solubility”. Half-maximal inhibition against full-length NDM-1 [1] (IC50) required 980 µM. The “MICs … with NDM-1 inhibitors” value in data set [2] (inhibitor at 6.25 µM) came to 256 µg/mL; in data set [2] (inhibitor at 12.5 µM) it was 256 µg/mL; in data set [2] (inhibitor at 25.0 µM), 128 µg/mL; in [2] (inhibitor at 50.0 µM), 32 µg/mL; in data set [2] (inhibitor at 100.0 µM), 32 µg/mL. Also, the “synergistic antibacterial activity” value in [2] was “showed synergistic antibacterial activity”.
For `COC(=O)c1cc(OCc2ccccc2)c(C(=O)OC)s1` [Compound 1], in data set [11], the solubility result is on record as “precipitated out at high concentrations”. The compound further gave an IC50 against full-length NDM-1 [1] of more than 300 µM. The “MICs … with NDM-1 inhibitors” value in data set [2] (inhibitor at 6.25 µM), in data set [2] (inhibitor at 12.5 µM), in data set [2] (inhibitor at 25.0 µM) and in data set [2] (inhibitor at 50.0 µM) was 256 µg/mL throughout. In [2], the “synergistic antibacterial activity” value is “did not exhibited synergistic antibacterial effect”.
For `CO/N=C(\C(=O)N[C@@H]1C(=O)N2C(C(=O)O)=C(COC(N)=O)CS[C@H]12)c1ccco1` [Cefuroxime, cefuroxime], on full-length NDM-1 [3] (setting [12]), the K m is 12 µM and 12 ± 1 µM.
`CC1(C)S[C@@H]2[C@H](NC(=O)[C@H](N)c3ccccc3)C(=O)N2[C@H]1C(=O)O` [Ampicillin, ampicillin]: the K m is 18 ± 1 µM on full-length NDM-1 [3] (setting [12]) and 18 µM at full-length NDM-1 [3] (substrate hydrolysis, 20 mM HEPES pH 6.8, 30°C, listed as ampicillin).
`O=C(O)C(C(=O)O)c1cc(Cc2nnn[nH]2)sc1Cc1nnn[nH]1` [Compound 4]: the solubility entry in data set [11] is recorded as “stronger solubility”. For the same compound, at full-length NDM-1 [1], half-maximal inhibition (IC50) was put at 280 µM. Further, the “MICs … with NDM-1 inhibitors” value was 128 µg/mL in data set [2] (inhibitor at 6.25 µM); 64 µg/mL in data set [2] (inhibitor at 12.5 µM); 64 µg/mL in data set [2] (inhibitor at 25.0 µM); 32 µg/mL in data set [2] (inhibitor at 50.0 µM); 16 µg/mL in [2] (inhibitor at 100.0 µM). For the same compound, in data set [2], the “sensitization of the strain to clinically achievable concentrations of meropenem” value was “able to sensitize the strain to clinically achievable concentrations of meropenem”. The “synergistic antibacterial activity” value in data set [2] is recorded as “showed synergistic antibacterial activity”.
`Cc1cc(O)c(C(=O)N[C@@H](C(=O)N[C@@H]2C(=O)N3C(C(=O)O)=C(CSc4nnnn4C)CS[C@H]23)c2ccc(O)cc2)cn1` [Cefpiramide, cefpiramide]: the K m on full-length NDM-1 [3] (setting [12]) worked out at 39 ± 3 µM.
In the case of `C[C@H]1[C@H](NC(=O)/C(=N\OC(C)(C)C(=O)O)c2csc(N)n2)C(=O)N1S(=O)(=O)O` [Aztreonam, aztreonam], the “hydrolysis by NDM-1 / kinetic constants” value on full-length NDM-1 [3] (result in words) is “kinetic constants could not be calculated”.
Consider `CO/N=C(\C(=O)N[C@@H]1C(=O)N2C(C(=O)O)=CCS[C@H]12)c1csc(N)n1` [Ceftizoxime, ceftizoxime], for which the K m on full-length NDM-1 [3] (setting [12]) stood at 29 ± 2 µM.
As to `COC(=O)c1sc(C(=O)OC)c(OCc2ccccc2)c1OCc1ccccc1` [Compound 2], the solubility result in [11] is on record as “precipitated out at high concentrations”. The compound also registered an IC50 against full-length NDM-1 [1] of more than 100 µM. The “MICs … with NDM-1 inhibitors” value in [2] (inhibitor at 6.25 µM), in [2] (inhibitor at 12.5 µM), in [2] (inhibitor at 25.0 µM) and in [2] (inhibitor at 50.0 µM) was 256 µg/mL throughout. Further, in [2], the “synergistic antibacterial activity” value was “did not exhibited synergistic antibacterial effect”.
`CC(C)(O/N=C(\C(=O)N[C@@H]1C(=O)N2C(C(=O)[O-])=C(C[n+]3ccccc3)CS[C@H]12)c1csc(N)n1)C(=O)O` [Ceftazidime, ceftazidime]: the K m came out at 129 ± 9 µM at full-length NDM-1 [3] (setting [12]) and 129 µM on full-length NDM-1 [3] (substrate hydrolysis, 20 mM HEPES pH 6.8, 30°C, listed as ceftazidime).

For the origin of these results see publication PMC3652859, “Inhibitor Discovery of Full-Length New Delhi Metallo-β-Lactamase-1 (NDM-1)” (PLoS ONE, 2013).
